Values after ≈ are worked out from the molar mass of the structure shown. Read-outs that look alike come from different tables or passages of the source.

Data set [1] is described as follows: Cyclic voltammetry in aqueous 1 M NaOH. The data set is classed as physicochemical. Particulars: 1 M NaOH solution. The protocol: Electrochemical tests: CV measurements in aqueous phase were performed using a three-electrode configuration consisting of a glassy carbon working electrode (3 mm diameter), a glassy carbon counter electrode and an Ag/AgCl reference electrode. The electrolytes of 10 mM redox-active materials in 1.0 M NaOH were used. CV data were collected using a CHI760D potentiostat (CH Instruments) at a scan rate of 100 mV s^−1 (Hollas et al., Nature Energy 2018, 3:508-514). CV measurements in nonaqueous phase were performed using a three-electrode configuration consisting of a glassy carbon working electrode (3 mm diameter), a glassy carbon counter electrode and an Ag/AgNO3 (10 mM in Acetonitrile) as reference electrode or Ag wire as pseudo reference electrode (Inzelt et al., Handbook of Reference Electrodes, 2013, Springer). Tests were carried out in an argon-filled Mbraun glove box (Stratham, N.H., USA).
In view of the DFT calculation, it was theorized that functionalization of the FL ring structures with electron withdrawing groups such as —F, -sulfonamide, and —SO3−, among others, would shift the equilibrium constant to increase the concentration of deprotonated FL-OH anion/dianion relative to FL-OH, thereby improving the two-electron redox-reversibility of FLs. […] As expected, the CV curves with two pairs of peaks become clear and sharp with adding stronger electron withdrawing groups. […]

The next data set can be described thus: Solubility test. The format is physicochemical. On the procedure:
Solubility test: The dissolving solvent was added drop by drop to 1 mmol of testing powder with intermittent agitation with VWR Vertex mixer, until all powder was dissolved. The total mass of the solution was recorded. A glass micro syringe was used to transfer 100 μL of the solution directly to a tared weight glass vial for mass measurement. Specific gravity of the as-obtained solution was calculated, then the total volume of the as-obtained solution was calculated using calculated density and recorded total solution mass. Last, molarity was calculated based on calculated total solution volume (Duan et al., ACS Energy Letters 2017, 2:1156-1161).
The solubilities of as-synthesized FLs in basic solution, 2 M NaOH/KOH, was investigated. […] The energy density is almost double that of a conventional vanadium electrolyte.

The nature of data set [2]: Post-cycling analysis of anolyte (NMR, mass spectroscopy). The note with it: after 6-month operation, 1.36 M anolyte. The data set is classed as physicochemical. On the procedure: An additional test was conducted for six months (FIG. 18). […] At about cycle 650, catholyte precipitation was noticed, and replaced with fresh catholyte. No material degradation was detected by NMR or mass-spectroscopy (FIGS. 21 and 22).
For the reason that charged anolyte is usually sensitive to 02, flow battery tests of organic based electrolyte reported so far are conducted in inert atmosphere, which is a significant hurdle to their practical applications. We submit another battery test without significant deaerating treatment at reasonable CE and EE (FIGS. 34 and 35). The 1 M battery was assembled without N2 atmosphere, sealed with a stopper and parafilm, and no further deoxygenation was conducted before charging. The battery operated stably at 20 mA/cm^2 for 2 weeks. The observed capacity fluctuation was attributed to temperature changes on a daily basis. […] The first cycle low CE was attributed to charged material consuming existing 02 in the cell system. As expected, the first cycle charging capacity was a little higher than same amount of substance in a battery inside the purge box (without 02 induced discharge influence). However, no irreversible side reactions occurred and long-term cycling occurred analogous to tests conducted in an inert atmosphere purge box. […]

For data set [3] the following is noted: 2M KOH column; literature data provided as a comparison (tested in KOH); cited from earlier work.
[4] abbreviates: 2 M NaOH solution, aqueous buffer, thermodynamic from solid, 2M NaOH, read-out: Solubility.
Where [5] appears, read: 2 M KOH solution, aqueous buffer, thermodynamic from solid, 2M KOH, read-out: Solubility.

The solubility is the dissolved amount per volume that the medium holds. With `N#Cc1nc2c(nc1O)-c1ccccc1C2=O` [Compound 14N2CN3OHFL, 3-hydroxy-9-oxo-9H-indeno[1,2-b]pyrazine-2-carbonitrile], in data set [1], the reversible peak potential was about −0.85 V vs Ag/AgCl. For the same molecule, the solubility in the data set “Solubility test” (setting [4]) came out at 1000 mM (≈ 223 mg/mL).
On to `O=C(O)c1cccc2c1-c1ccc(S(=O)(=O)O)cc1C2=O` [Compound 4C7SFL, 9-Oxo-7-sulfo-9H-fluorene-4-carboxylic acid], for which the “post-cycling analysis (in words)” value in data set [2] is recorded as “small, yet observable new aromatic peaks attributed to de-sulfonation on the fluorenone core structure”. In addition, the results for the solubility in “Solubility test” (setting [5]) and in the data set “Solubility test” (setting [4]) were 1300 mM (≈ 396 mg/mL) and 1500 mM (≈ 456 mg/mL), respectively. In “Solubility test” (two-electron redox reaction, from solubility), the available electron concentration is on record as about 3 M.
On to `O=C1c2cc(S(=O)(=O)[O-])ccc2-c2ccc(S(=O)(=O)[O-])cc21.[K+].[K+]` [DSFL, Potassium 9-oxo-9H-fluorene-2,7-disulfonate], for which the solubility was under 50 mM in the data set “Solubility test” (2 M KOH solution, aqueous buffer, thermodynamic from solid, read-out: Solubility); under 50 mM in the data set “Solubility test” (2 M NaOH solution, aqueous buffer, thermodynamic from solid, read-out: Solubility); at most 240 mM in the data set “Solubility test” (thermodynamic from solid, disodium salt in pure water, read-out: Solubility).
Regarding `O=C1c2cc(O)ccc2-c2ccc(O)cc21` [DHFL, 9-oxo-2,7-dihydroxy-9H-fluorene], the solubility in “Solubility test” (pure water with 2 eq. NaOH, aqueous buffer, thermodynamic from solid, with 2 eq. NaOH in pure water, read-out: Solubility) amounted to 600 mM (≈ 127 mg/mL).
As for `O=C(O)c1ccc2c(c1)C(=O)c1ccccc1-2` [Compound 2CFL], in data set [3], the solubility is 800 mM (≈ 179 mg/mL).
In the data set “Solubility test” (2M NaOH), `O=C(O)c1cc(F)cc2c1-c1c(cc(F)cc1S(=O)(=O)[O-])C2=O.[K+]` [Compound 27F4C5SFL] yielded a solubility of 150 mM.
Take `O=C(O)c1cc(F)cc2c1-c1ccc(F)cc1C2=O` [Compound 27F4CFL]: the solubility in “Solubility test” (thermodynamic from solid, with agitation, copious precipitate after sitting overnight, read-out: Solubility (transparent homogeneous solution)) was at most 1400 mM.
As to `O=C1c2cccnc2-c2ncccc21` [Compound 45NFL, 4,5-diazafluoren-9-one], the “solubility (in words)” value in “Solubility test” is reported as “limited solubility”.
For `O=C(O)c1ccc2c(c1)C(=O)c1cc(C(=O)O)ccc1-2` [DCFL], the results for the solubility in the data set “Solubility test” (2M KOH) and in “Solubility test” (2M NaOH) were 900 mM (≈ 241 mg/mL) and 40 mM (≈ 10.7 mg/mL), respectively.
The matching figures for `O=C1c2cc(Br)cc(S(=O)(=O)[O-])c2-c2c1cc(Br)cc2S(=O)(=O)[O-].[K+].[K+]` [Compound 27Br4SFL]: “trace” and “trace”.
On to `O=C(O)c1ccc2c(c1)C(=O)c1cc(S(=O)(=O)[O-])ccc1-2.[K+]` [Compound 2C7SFL], for which the solubility came to 700 mM in the data set “Solubility test” (setting [5]) and 1100 mM in the data set “Solubility test” (setting [4]).
In turn, `O=C(O)c1cc(S(=O)(=O)O)cc2c1-c1ccc(S(=O)(=O)O)cc1C2=O` [Compound 27S4CFL, 9-oxo-2,7-sulfo-9H-fluorene-4-carboxylic acid] registered a solubility in the data set “Solubility test” (2M NaOH) of 800 mM (≈ 307 mg/mL).
Turning to `O=C(O)c1cccc2c1-c1ccccc1C2=O` [Compound 4CFL], the solubility in data set [3] was 650 mM (≈ 146 mg/mL).
With `O=C1c2cc(OCCOCCOCCO)ccc2-c2ccc(OCCOCCOCCO)cc21` [PEG-FL], the solubility result in “Solubility test” (2M KOH) and in “Solubility test” (2M NaOH) was “trace” each time.

The values are drawn from patent US11591294B2, “Fluorenone/fluorenol derivatives for aqueous redox flow batteries” (Battelle Memorial Institute, priority 2019, dated 2023).
